ChEMBL document CHEMBL6182838, “Structure-activity relationship expansion and microsomal stability assessment of the 2-morpholinobenzoic acid scaffold as antiproliferative phosphatidylcholine-specific phospholipase C inhibitors” (RSC Med Chem, 2025)

Columns and labels:
[1] = Metabolic stability in Sprague-Dawley rat microsomes assessed as degradation in presence of NADPH at 10 uM measured up to 60 mins by HPLC analysis; format: ADME, Microsome
[2] = Metabolic stability in Sprague-Dawley rat microsomes assessed as degradation in absence of NADPH at 10 uM measured up to 60 mins by HPLC analysis; format: ADME, Microsome
[3] = test system: MDA-MB-231; assay: Antiproliferative activity against human MDA-MB-231 cells assessed as cell proliferation at 10 uM measured after 3 days incubation followed by incubated 5 hrs with [3H]-thymidine by 3H-thymidine incorporation assay relative to control; format: functional; conditions: MDA-MB-231, 72 h, time 3 day, read-out: Activity
[4] = test system: HCT-116; assay: Antiproliferative activity against human HCT-116 cells assessed as cell proliferation at 10 uM measured after 3 days incubation followed by incubated 5 hrs with [3H]-thymidine by 3H-thymidine incorporation assay relative to control; format: functional; conditions: HCT-116, 72 h, time 3 day, read-out: Activity
[5] = test system: Bacillus cereus; assay: Inhibition of Bacillus cereus phosphatidylcholine specific phospholipase C (PC-PLC BC) assessed as enzyme activity by measuring formation of resorufin fluorophore 10 uM by Amplex-Red based fluorescence assay relative to control; design: scale not given: the % may be the effect or the level left
[6] = Metabolic stability in Sprague-Dawley rat microsomes assessed as degradation in presence of NADPH at 10 uM measured after 1 hr by HPLC analysis; format: ADME, Microsome
[7] = test system: MDA-MB-231; assay: Antiproliferative activity against human MDA-MB-231 cells assessed as cell proliferation measured after 3 days incubation followed by incubated 5 hrs with [3H]-thymidine by 3H-thymidine incorporation assay; format: functional, cell-based
[8] = test system: HCT-116; assay: Antiproliferative activity against human HCT-116 cells assessed as cell proliferation measured after 3 days incubation followed by incubated 5 hrs with [3H]-thymidine by 3H-thymidine incorporation assay; format: functional, cell-based

| Structure (SMILES) | growth at 10 µM [3] [%] | growth at 10 µM [4] [%] | Activity [5] [%] | also measured |
| --- | --- | --- | --- | --- |
| CCOc1ccc2ccc(=O)oc2c1 [ETHOXYCOUMARIN] |  |  |  | Stability ([1]; microsomes, 1 h, 10 µM): Unstable; Stability ([2]; microsomes, 1 h, 10 µM): Stable |
| O=C(O)c1cc(NCc2ccccc2Cl)ccc1N1CCOCC1 |  |  |  | metabolised at 1 h, 10 µM ([1]; Sprague-Dawley, rat microsomes, read-out: Drug degradation): 17% |
| CN(Cc1ccccc1Cl)c1ccc(N2CCOCC2)c(C(=O)O)c1 | 95.5 | 87.8 |  | % remaining at 1 h, 10 µM ([2]; Sprague-Dawley, rat microsomes): 94% |
| O=C(O)c1ccc(NCc2ccccc2Cl)cc1N1CCOCC1 | 88 | 87.6 | 50.8 | Stability [6]: Stable |
| O=C(NO)c1cc(NCc2ccccc2Cl)ccc1N1CCOCC1 | 11.7 | 2 |  | IC50 [7]: 2.9 µM; IC50 [8]: 4.9 µM |
| O=C(O)c1cc(NCc2ccccc2Cl)ccc1C1CCOCC1 | 111 | 101 | 107 | Stability [6]: Stable |
| CN(Cc1ccccc1Cl)c1ccc(N2CCOCC2)c(C(=O)NO)c1 | 4.3 | 4.8 |  | IC50 [7]: 1.1 µM; IC50 [8]: 3.4 µM |
| COc1ccc(CNc2ccc(C3CCOCC3)c(C(=O)O)c2)cc1 | 102 | 93.6 | 104 |  |
| COC(=O)c1ccc(NCc2ccc(OC)cc2)cc1N1CCOCC1 | 87.5 | 70.4 | 104 |  |
| COC(=O)c1ccc(NCc2ccccc2F)cc1N1CCOCC1 | 92.8 | 67.4 | 105 |  |
| O=C(NO)c1ccc(NCc2cccc(Br)c2)cc1N1CCOCC1 | 25.3 | 32.3 | 45.3 |  |
| COc1ccc(CNc2ccc(C(=O)O)c(N3CCOCC3)c2)cc1 | 110 | 105 | 106 |  |
| O=C(NO)c1cc(NCc2cccc(Cl)c2)ccc1C1CCOCC1 | 80.1 | 83 | 79.7 |  |
| COC(=O)c1ccc(NCc2cccc(OC)c2)cc1N1CCOCC1 | 80.6 | 48.5 | 109 |  |
| COC(=O)c1cc(NCc2cccc(Br)c2)ccc1C1CCOCC1 | 58.8 | 40.1 | 109 |  |
| COC(=O)c1ccc(NCc2ccc(Cl)cc2)cc1N1CCOCC1 | 70.3 | 43.8 | 41.3 |  |
| O=C(NO)c1cc(NCc2cccc(Br)c2)ccc1N1CCOCC1 |  | 1.9 |  | IC50 [7]: 3.3 µM; IC50 [8]: 5.8 µM |
